Test results as given in ChEMBL document CHEMBL6078705 (Bioorg Med Chem, 2025).
Active and inactive are the calls of the source. The rule behind the calls is not given here.

Legend:
[1] = Inhibition of bovine brain tubulin polymerization preincubated for 15 mins followed by GTP addition and measured after 20 mins by spectrophotometric analysis; parameters: species or system Bos taurus
Tubulin (Homo sapiens) = Tubulin (Homo sapiens) (UniProt P68371+Q9H4B7+P0DPH7+P68366+Q13509+Q71U36+P04350+Q3ZCM7+P07437+P68363+Q9BQE3+Q6PEY2+Q13885+Q9BVA1+Q9BUF5); experiment: Inhibition of [3H]Colchicine binding to tubulin (unknown origin) at 5 uM incubated for 10 mins in presence of GTP by Beckman scintillation counter relative to control; type: protein-complex assay
MCF7 = experiment: Cytotoxicity against human MCF7 cells assessed as cell growth inhibition; type: functional
MDA-MB-231 = experiment: Cytotoxicity against human MDA-MB-231 cells assessed as cell growth inhibition incubated for 96 hrs by SRB assay; type: functional
Mus musculus [2] = experiment: Vascular disrupting activity in female BALB/c mouse implanted with orthotropic 4T1-Luc cells assessed as reduction in bioluminescence imaging signal at 20 mg/kg, ip measured at 4 hrs by imaging analysis; type: functional, organism-based
Mus musculus [3] = experiment: Vascular disrupting activity in female BALB/c mouse implanted with orthotropic 4T1-Luc cells assessed as reduction in bioluminescence imaging signal at 20 mg/kg, ip measured at 24 hrs by imaging analysis relative to control; type: functional; parameters: scale not given: the % may be the effect or the level left
Mus musculus [4] = experiment: Vascular disrupting activity in female BALB/c mouse implanted with orthotropic 4T1-Luc cells assessed as reduction in bioluminescence imaging signal at 50 mg/kg, ip measured at 4 hrs by imaging analysis relative to control; type: functional; parameters: scale not given: the % may be the effect or the level left
[5] = Toxicity in female BALB/c mouse implanted with orthotropic 4T1-Luc cells assessed as animal death at >50 mg/kg, ip measured within 24 hrs; type: organism-based; conditions: in vivo
[6] = Toxicity in female syngenic BALB/c mouse implanted with orthotropic RENCA-Luc cells assessed as animal death at 50 to 100 mg/kg, ip measured after 24 hrs; type: organism-based; conditions: in vivo, dose 50-100 mg/kg
Mus musculus [7] = experiment: Vascular disrupting agent in female syngenic BALB/c mouse implanted with orthotropic RENCA-Luc cells assessed as reduction in bioluminescence imaging signal at 50 mg/kg, ip measured at 4 hrs by imaging analysis relative to control; type: functional; parameters: scale not given: the % may be the effect or the level left
Mus musculus [8] = experiment: Vascular disrupting agent in female syngenic BALB/c mouse implanted with orthotropic RENCA-Luc cells assessed as reduction in bioluminescence imaging signal at 50 mg/kg, ip measured at 24 hrs by imaging analysis; type: functional, organism-based
Mus musculus [9] = experiment: Vascular disrupting agent in female syngenic BALB/c mouse implanted with orthotropic RENCA-Luc cells assessed as reduction in bioluminescence imaging signal at 100 mg/kg, ip measured at 4 hrs by imaging analysis relative to control; type: functional; parameters: scale not given: the % may be the effect or the level left
Mus musculus [10] = experiment: Vascular disrupting agent in female syngenic BALB/c mouse implanted with orthotropic RENCA-Luc cells assessed as reduction in bioluminescence imaging signal at 100 mg/kg, ip measured at 24 hrs by imaging analysis; type: functional, organism-based

COc1cccc(C(=O)c2c(-c3ccc(OC)c(O)c3)[nH]c3cc(OC)ccc23)c1
IC50 [1]: 4200 nM | inhibition (Tubulin (Homo sapiens)): 33% | GI50 (MCF7): 490 nM | GI50 (MDA-MB-231): 537 nM

COc1ccc2c(C(=O)c3cc(OC)c(OC)c(OC)c3)c(-c3ccc(OC)c(Br)c3)[nH]c2c1
IC50 [1]: 1200 nM | inhibition (Tubulin (Homo sapiens)): 34% | GI50 (MCF7): 413 nM | GI50 (MDA-MB-231): 483 nM

COc1ccc2c(C(=O)c3cc(Cl)cc(Cl)c3)c(-c3ccc(OC)c(O)c3)[nH]c2c1
IC50 [1]: 740 nM | inhibition (Tubulin (Homo sapiens)): 80% | GI50 (MCF7): 240 nM | GI50 (MDA-MB-231): 133 nM

COc1ccc2c(C(=O)c3cccc(F)c3)c(-c3ccc(OC)c(O)c3)[nH]c2c1
IC50 [1]: 1600 nM | inhibition (Tubulin (Homo sapiens)): 25% | GI50 (MCF7): 2500 nM | GI50 (MDA-MB-231): 7110 nM

COc1ccc2c(C(=O)c3cc(OC)c(OC)c(OC)c3)c(-c3ccc(OC)c(N)c3)[nH]c2c1
IC50 [1]: 430 nM | inhibition (Tubulin (Homo sapiens)): 65% | GI50 (MCF7): 20 nM | GI50 (MDA-MB-231): 36.9 nM

COc1ccc(-c2[nH]c3c(OC)c(OC)c(OC)cc3c2C(=O)c2cc(OC)c(OC)c(OC)c2)cc1O
IC50 [1]: > 20000 nM | GI50 (MCF7): > 5000 nM

COc1ccc(-c2[nH]c3cc(OC)c(OC)c(OC)c3c2C(=O)c2cc(OC)c(OC)c(OC)c2)cc1
IC50 [1]: > 5000 nM | GI50 (MCF7): 1500 nM

COc1cccc(-c2[nH]c3cc(OC)c(OC)c(OC)c3c2C(=O)c2cc(OC)c(OC)c(OC)c2)c1
IC50 [1]: > 5000 nM | GI50 (MCF7): > 5000 nM

COc1ccc2c(C(=O)c3cccc(Cl)c3)c(-c3ccc(OC)c(O)c3)[nH]c2c1
IC50 [1]: 450 nM | inhibition (Tubulin (Homo sapiens)): 69% | GI50 (MCF7): 470 nM | GI50 (MDA-MB-231): 319 nM

COc1ccc(-c2[nH]c3c(O)c(OC)ccc3c2C(=O)c2cc(OC)c(OC)c(OC)c2)cc1
IC50 [1]: 860 nM | GI50 (MCF7): 6 nM | GI50 (MDA-MB-231): 170 nM

COc1ccc(-c2[nH]c3c(OC)c(OC)ccc3c2C(=O)c2cc(OC)c(OC)c(OC)c2)cc1O
IC50 [1]: 760 nM | GI50 (MCF7): 3.5 nM | GI50 (MDA-MB-231): 14 nM

COc1ccc2c(C(=O)c3cc(F)cc(F)c3)c(-c3ccc(OC)c(O)c3)[nH]c2c1
IC50 [1]: 820 nM | inhibition (Tubulin (Homo sapiens)): 50% | GI50 (MCF7): 1500 nM | GI50 (MDA-MB-231): 3170 nM

COc1ccc(-c2[nH]c3c(OP(=O)([O-])[O-])c(OC)ccc3c2C(=O)c2cc(OC)c(OC)c(OC)c2)cc1OC.[Na+].[Na+]
Activity (Mus musculus [2]): inactive | Activity (Mus musculus [3]): 50% | Activity (Mus musculus [4]): 95% | Activity [5]: Toxic

COc1ccc(-c2[nH]c3c(OC)c(OC)ccc3c2C(=O)c2cc(OC)c(OC)c(OC)c2)cc1OP(=O)([O-])[O-].[Na+].[Na+]
Activity [6]: Non-toxic | Activity (Mus musculus [7]): 15% | Activity (Mus musculus [8]): Active; Little Change Observed Relative To 4 Hrs Compound Treatment | Activity (Mus musculus [9]): 91% | Activity (Mus musculus [10]): Active; Slight Recovery Observed

COc1ccc2c(C(=O)c3c(F)c(F)c(F)c(F)c3F)c(-c3ccc(OC)c(O)c3)[nH]c2c1
IC50 [1]: > 20000 nM | GI50 (MCF7): > 5000 nM

COc1ccc(/C=C\c2cc(OC)c(OC)c(OC)c2)cc1O [COMBRETASTATIN A4]
IC50 [1]: 910 nM | GI50 (MCF7): 9.5 nM | GI50 (MDA-MB-231): 1.7 nM

COc1ccc(-c2[nH]c3c(C)c(C)ccc3c2C(=O)c2cc(OC)c(OC)c(OC)c2)cc1O
IC50 [1]: > 20000 nM | GI50 (MCF7): > 5000 nM

COc1ccc2c(C(=O)c3cc(OC)c(OC)c(OC)c3)c(-c3ccc(OC)c([N+](=O)[O-])c3)[nH]c2c1
IC50 [1]: 770 nM | inhibition (Tubulin (Homo sapiens)): 24% | GI50 (MCF7): 120 nM | GI50 (MDA-MB-231): 275 nM

COc1ccccc1-c1[nH]c2cc(OC)c(OC)c(OC)c2c1C(=O)c1cc(OC)c(OC)c(OC)c1
IC50 [1]: 920 nM | inhibition (Tubulin (Homo sapiens)): 70% | GI50 (MCF7): 85 nM | GI50 (MDA-MB-231): 6980 nM
